This passage reports EC50 results from patent publication US9409884B2 (Rigel Pharmaceuticals, Inc., priority 2012, dated 2016).

pEC50: −log10 of the molar value.

This assay has as its target AMPK. The assay is described as follows: AMPK activation, enzyme-linked immunosorbent assay. The format is biochemical. The settings on record: Table 14, compounds of Table 7. An outline of the steps:
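Read-out: ELISA, used to detect compound-driven activation of AMPK.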
As usually defined, the pEC50 is −log10 of the EC50, conventionally taken in molar units. Read a high pEC50 as a low EC50. As for `O=C(NC1CCN(Cc2ccc(OC(F)(F)F)cc2)C[C@H]1F)c1ccc(C(=O)N2CCC(C(=O)c3ccc(N4CCOCC4)cc3)CC2)nc1` (stereo partly drawn) [Compound 7-53, N-((3,4-trans)-3-fluoro-1-(4-(trifluoromethoxy)benzyl)piperidin-4-yl)-6-(4-(4-morpholinobenzoyl)piperidine-1-carbonyl)nicotinamide], the pEC50 is > 6.00.

With `COc1ccc(C(=O)C2CCN(C(=O)c3ccc(C(=O)NC4CCN(Cc5ccc(OC)c(C#N)c5)C[C@H]4F)cn3)CC2)cc1` (stereo partly drawn) [Compound 7-55, N-((3,4-trans)-1-(3-cyano-4-methoxybenzyl)-3-fluoropiperidin-4-yl)-6-(4-(4-methoxybenzoyl)piperidine-1-carbonyl)nicotinamide], the pEC50 was 5.00 to 6.00.

In turn, `COc1ccc(C(=O)C2CCN(C(=O)c3ccc(C(=O)NC4CCN(Cc5ccc(C#N)cc5C)C[C@H]4F)cn3)CC2)cc1` (stereo partly drawn) [Compound 7-56, N-((3,4-trans)-1-(4-cyano-2-methylbenzyl)-3-fluoropiperidin-4-yl)-6-(4-(4-methoxybenzoyl)piperidine-1-carbonyl)nicotinamide] showed a pEC50 of 5.00 to 6.00.

For the compound `O=C(NC1CCN(Cc2ccc(OC(F)(F)F)cc2)C[C@H]1F)c1ccc(C(=O)N2CCC(C(=O)c3ccc(N4CCCC4)cc3)CC2)nc1` (stereo partly drawn) [Compound 7-57, N-((3,4-trans)-3-fluoro-1-(4-(trifluoromethoxy)benzyl)piperidin-4-yl)-6-(4-(4-(pyrrolidin-1-yl)benzoyl)piperidine-1-carbonyl) nicotinamide], the pEC50 was > 6.00.

With `COc1ccc(C(=O)C2CCN(C(=O)c3ccc(C(=O)NC4CCN(Cc5ccc(C)c(C#N)c5)C[C@H]4F)cn3)CC2)cc1` (stereo partly drawn) [Compound 7-58, N-((3,4-trans)-1-(3-cyano-4-methylbenzyl)-3-fluoropiperidin-4-yl)-6-(4-(4-methoxybenzoyl)piperidine-1-carbonyl)nicotinamide], the pEC50 was > 6.00.

Take `COc1ccc(C(=O)C2CCN(C(=O)c3ccc(C(=O)NC4CCN(Cc5ccc(C#N)c(C)c5)C[C@H]4F)cn3)CC2)cc1` (stereo partly drawn) [Compound 7-59, N-((3,4-trans)-1-(4-cyano-3-methylbenzyl)-3-fluoropiperidin-4-yl)-6-(4-(4-methoxybenzoyl)piperidine-1-carbonyl)nicotinamide]: the pEC50 was > 6.00.

On to `CS(=O)(=O)c1ccc(C(=O)C2CCN(C(=O)c3ccc(C(=O)NC4CCN(Cc5ccc(OC(F)(F)F)cc5)C[C@H]4F)cn3)CC2)cc1` (stereo partly drawn) [Compound 7-61, N-((3,4-trans)-3-fluoro-1-(4-(trifluoromethoxy)benzyl)piperidin-4-yl)-6-(4-(4-(methylsulfonyl)benzoyl)piperidine-1-carbonyl) nicotinamide], for which the negative-log EC50 (pEC50) is 5.00 to 6.00.

Take `N#Cc1ccc(OC2CCN(C(=O)c3ccc(C(=O)NC4CCN(Cc5ccc(OC(F)(F)F)cc5)CC4F)cn3)CC2)cc1` (stereo not drawn) [Compound 7-62, 6-(4-(4-cyanophenoxy)piperidine-1-carbonyl)-N-((3,4-trans)-3-fluoro-1-(4-(trifluoromethoxy)benzyl)piperidin-4-yl)nicotinamide]: the pEC50 is > 6.00.

`COc1ccc(C(=O)C2CCN(C(=O)c3ccc(C(=O)NC4CCN(Cc5cnn(C)c5)C[C@H]4F)cn3)CC2)cc1` (stereo partly drawn) [Compound 7-63, N-((3,4-trans)-3-fluoro-1-((1-methyl-1H-pyrazol-4-yl)methyl)piperidin-4-yl)-6-(4-(4-methoxybenzoyl)piperidine-1-carbonyl)nicotinamide] had a pEC50 of 4.70 to 5.00.

The compound `Cc1cc(OC2CCN(C(=O)c3ccc(C(=O)NC4CCN(Cc5ccc(OC(F)(F)C(F)F)cc5)CC4)cn3)CC2)ccc1S(C)(=O)=O` [Compound 7-64, 6-(4-(3-methyl-4-(methylsulfonyl)phenoxy)piperidine-1-carbonyl)-N-(1-(4-(1,1,2,2-tetrafluoroethoxy)benzyl)piperidin-4-yl)nicotinamide] gave a negative-log EC50 (pEC50) of 5.00 to 6.00.

Turning to `N#Cc1ccc(CN2CCC(NC(=O)c3ccc(C(=O)N4CCC(Oc5ccc(C#N)cc5)CC4)nc3)[C@@H](F)C2)cc1` (stereo partly drawn) [Compound 7-67, N-((3,4-trans)-l-(4-cyanobenzyl)-3-fluoropiperidin-4-yl)-6-(4-(4-cyanophenoxy)piperidine-1-carbonyl)nicotinamide], the pEC50 was > 6.00.

Turning to `N#Cc1ccc(CN2CCC(NC(=O)c3ccc(C(=O)N4CCC(C(=O)c5ccc(-n6cccn6)cc5)CC4)nc3)[C@H](F)C2)cc1` (stereo partly drawn) [Compound 7-68, 6-(4-(4-(lH-pyrazol-1-yl)benzoyl)piperidine-1-carbonyl)-N-((3,4-trans)-1-(4-cyanobenzyl)-3-fluoropiperidin-4-yl)nicotinamide], the pEC50 is > 6.00.

Take `CC(=O)c1ccc(Oc2ccc(NC(=O)c3ccc(C(=O)N4CCC(C(=O)c5ccc(OC(F)(F)F)cc5)CC4)nc3)cn2)cc1` [Compound 7-70, N-(6-(4-acetylphenoxy)pyridin-3-yl)-6-(4-(4-(trifluoromethoxy)benzoyl)piperidine-1-carbonyl) nicotinamide]: the pEC50 is > 6.00.

As to `N#Cc1ccc(CN2CCC(NC(=O)c3ccc(C(=O)N4CCC(C(=O)c5ccc(OC(F)(F)F)cc5)CC4)nc3)[C@H](F)C2)cc1` (stereo partly drawn) [Compound 7-71, N-((3,4-trans)-1-(4-cyanobenzyl)-3-fluoropiperidin-4-yl)-6-(4-(4-(trifluoromethoxy)benzoyl)piperidine-1-carbonyl) nicotinamide], the pEC50 is > 6.00.

For `N#Cc1ccc(CN2CCC(NC(=O)c3ccc(C(=O)N4CCC(C(=O)c5ccc(N6CCCC6)cc5)CC4)nc3)[C@H](F)C2)cc1` (stereo partly drawn) [Compound 7-72, N-((3,4-trans)-1-(4-cyanobenzyl)-3-fluoropiperidin-4-yl)-6-(4-(4-(pyrrolidin-1-yl)benzoyl)piperidine-1-carbonyl)nicotinamide], the pEC50 is > 6.00.

With `N#Cc1ccc(CN2CCC(NC(=O)c3ccc(C(=O)N4CCC(Oc5ccc(S(=O)(=O)C6CC6)cc5)CC4)nc3)[C@H](F)C2)cc1` (stereo partly drawn) [Compound 7-73, N-((3,4-trans)-1-(4-cyanobenzyl)-3-fluoropiperidin-4-yl)-6-(4-(4-(cyclopropylsulfonyl)phenoxy)piperidine-1-carbonyl)nicotinamide], the pEC50 was 5.00 to 6.00.

As to `CC(=O)c1ccc(OC2CCN(C(=O)c3ccc(C(=O)NC4CCN(Cc5ccc(C#N)cc5)C[C@H]4F)cn3)CC2)cc1` (stereo partly drawn) [Compound 7-74, 6-(4-(4-acetylphenoxy)piperidine-1-carbonyl)-N-((3,4-trans)-1-(4-cyanobenzyl)-3-fluoropiperidin-4-yl)nicotinamide], the pEC50 is > 6.00.

On to `N#Cc1ccc(CN2CCC(NC(=O)c3ccc(C(=O)N4CCC(C(=O)c5ccc(N6CCOCC6)cc5)CC4)nc3)[C@H](F)C2)cc1` (stereo partly drawn) [Compound 7-75, N-((3,4-trans)-1-(4-cyanobenzyl)-3-fluoropiperidin-4-yl)-6-(4-(4-morpholinobenzoyl)piperidine-l-carbonyl)nicotinamide], for which the pEC50 was > 6.00.

In the case of `CC(=O)c1ccc(Oc2ccc(NC(=O)c3ccc(C(=O)N4CCN(Cc5ccc(S(C)(=O)=O)cc5)CC4)nc3)cn2)cc1` [Compound 7-76, N-(6-(4-acetylphenoxy)pyridin-3-yl)-6-(4-(4-(methylsulfonyl)benzyl)piperazine-1-carbonyl) nicotinamide], the negative logarithm of the EC50 (pEC50) was 5.00 to 6.00.

Consider `CS(=O)(=O)c1ccc(N2CCN(c3ccc(C(=O)NC4CCN(Cc5ccc(C#N)cc5)CC4)cn3)CC2)cc1` [Compound 7-77, N-(1-(4-cyanobenzyl)piperidin-4-yl)-6-(4-(4-(methylsulfonyl)phenyl)piperazin-1-yl)nicotinamide], for which the negative logarithm of the EC50 (pEC50) was > 6.00.

For `COc1ccc(C(=O)C2CCN(C(=O)c3ccc(C(=O)NC4CCN(Cc5ccc(C#N)cc5)C[C@@H]4C)cn3)CC2)cc1` (stereo partly drawn) [Compound 7-78, N-((3,4-trans)-1-(4-cyanobenzyl)-3-methylpiperidin-4-yl)-6-(4-(4-methoxybenzoyl)piperidine-1-carbonyl)nicotinamide], the pEC50 is > 6.00.

`CS(=O)(=O)c1ccc(CN2CCN(c3ccc(C(=O)NC4CCN(Cc5ccc(C#N)cc5)CC4)cn3)CC2)cc1` [Compound 7-79, N-(1-(4-cyanobenzyl)piperidin-4-yl)-6-(4-(4-(methylsulfonyl)benzyl)piperazin-1-yl)nicotinamide] gave a pEC50 of 4.70 to 5.00.

For the compound `CS(=O)(=O)c1ccc(OC2CCN(c3ccc(C(=O)NC4CCN(Cc5ccc(C#N)cc5)CC4)cn3)CC2)cc1` [Compound 7-80, N-(1-(4-cyanobenzyl)piperidin-4-yl)-6-(4-(4-(methylsulfonyl)phenoxy)piperidin-1-yl)nicotinamide], the pEC50 is > 6.00.

As to `N#Cc1ccc(CN2CCC(NC(=O)c3ccc(N4CCN(c5ccc(C(=O)C6CC6)cc5)CC4)nc3)CC2)cc1` [Compound 7-81, N-(1-(4-cyanobenzyl)piperidin-4-yl)-6-(4-(4-(cyclopropanecarbonyl)phenyl)piperazin-1-yl)nicotinamide], the pEC50 is > 6.00.

Consider `CC(=O)c1ccc(Oc2ccc(NC(=O)c3ccc(C(=O)N4CCN(Cc5ccc(S(=O)(=O)N6CCCC6)cc5)CC4)nc3)cn2)cc1` [Compound 7-83, N-(6-(4-acetylphenoxy)pyridin-3-yl)-6-(4-(4-(pyrrolidin-1-ylsulfonyl)benzyl)piperazine-1-carbonyl)nicotinamide], for which the pEC50 is 5.00 to 6.00.

Take `COc1ccc(C(=O)C2CCN(C(=O)c3ccc(C(=O)NC4CCN(Cc5ccc(C#N)cc5)CC4(C)C)cn3)CC2)cc1` (stereo not shown) [Compound 7-84, N-(1-(4-cyanobenzyl)-3,3-dimethylpiperidin-4-yl)-6-(4-(4-methoxybenzoyl)piperidine-1-carbonyl)nicotinamide]: the pEC50 is > 6.00.

`COc1ccc(C(=O)C2CCN(C(=O)c3ccc(C(=O)NC4CCN(Cc5ccc(OC(F)(F)F)cc5)CC4(C)C)cn3)CC2)cc1` (stereo not shown) [Compound 7-85, N-(3,3-dimethyl-1-(4-(trifluoromethoxy)benzyl)piperidin-4-yl)-6-(4-(4-methoxybenzoyl)piperidine-1-carbonyl)nicotinamide]: the negative logarithm of the EC50 (pEC50) is > 6.00.

With `COc1ccc(C(=O)C2CCN(C(=O)c3ccc(C(=O)NC4CCN(Cc5ccc(C#N)c(F)c5)CC4(C)C)cn3)CC2)cc1` (stereo not shown) [Compound 7-86, N-(1-(4-cyano-3-fluorobenzyl)-3,3-dimethylpiperidin-4-yl)-6-(4-(4-methoxybenzoyl)piperidine-1-carbonyl)nicotinamide], the pEC50 was > 6.00.
